From ChEMBL document CHEMBL1201862, “PubChem BioAssay data set” (2004)
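Step 1: Grow cells in 96-well plates. Step 2: Expose to compound for 48 hours at 5 concentrations. Step 3: Interpolate endpoints linearly; if unreached, use highest concentration. GI50 = concentration required for 50% inhibition of growth.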 Active and inactive are the calls of the source. Rule as the data show it: active = GI50 up to about 1.1 µM and inactive = higher.

Key:
Test in all cases: NCI anticancer screen, dose series, 48 h
[1] = test system: SK-MEL-5
[2] = test system: SF-295
[3] = test system: SR
[4] = test system: SN12C
[5] = test system: TK-10
[6] = test system: U-251
[7] = test system: CCRF-CEM
[8] = test system: OVCAR-4
[9] = test system: HOP-92
[10] = test system: 786-0
[11] = test system: OVCAR-3
[12] = test system: UO-31
[13] = test system: RPMI-8226
[14] = test system: UACC-62
[15] = test system: HCC 2998
[16] = test system: MCF7
[17] = test system: NCI-H460
[18] = test system: SW-620
[19] = test system: ACHN
[20] = test system: A498

Measured: GI50

O=[N+]([O-])c1ccccc1OCCOc1ccccc1[N+](=O)[O-]
inactive: [1] > 100 µM | [2] > 100 µM | [3] > 100 µM | [4] > 100 µM | [5] > 100 µM | [6] > 100 µM | [7] > 100 µM | [8] > 100 µM | [9] 71.8 µM | [10] > 100 µM | [11] > 100 µM | [12] > 100 µM | [13] > 100 µM | [14] > 100 µM | [15] > 100 µM | [16] > 100 µM | [17] > 100 µM | [18] > 100 µM | [19] > 100 µM | [20] > 100 µM

O=C1C=C(Nc2nc(O)cc(C(=O)O)n2)c2ccccc2C1=O
inactive: [1] > 100 µM | [2] > 100 µM | [3] > 100 µM | [4] > 100 µM | [5] > 100 µM | [6] > 100 µM | [7] > 100 µM | [8] > 100 µM | [9] > 100 µM | [10] > 100 µM | [11] > 100 µM | [12] > 100 µM | [13] > 100 µM | [14] > 100 µM | [15] > 100 µM | [16] > 100 µM | [17] > 100 µM | [18] > 100 µM | [19] > 100 µM | [20] > 100 µM

COC(=O)C1=C(C(=O)OC)C2OC1c1cc3ccccc3cc12
inactive: [1] 16.9 µM | [2] 18.8 µM | [3] 1.88 µM | [4] 16.4 µM | [5] 5.2 µM | [6] 17.3 µM | [7] 1.69 µM | [8] 1.78 µM | [9] 1.69 µM | [10] 1.76 µM | [11] 2.88 µM | [12] 1.54 µM | [13] 2.33 µM | [14] 14.5 µM | [15] 6.34 µM | [16] 8.89 µM | [17] 22.2 µM | [18] 1.96 µM | [19] 1.63 µM | [20] 21.1 µM

CCOC(=O)CCc1cccc2c1oc1c(CCNC(=O)OCC3c4ccccc4-c4ccccc43)cccc12
inactive: [1] 29.2 µM | [2] 19.6 µM | [3] 22.5 µM | [4] > 100 µM | [5] 40.4 µM | [6] 57.3 µM | [7] > 100 µM | [8] > 100 µM | [9] 23.1 µM | [10] 37.2 µM | [11] 49 µM | [12] 34.9 µM | [13] > 100 µM | [14] 16.4 µM | [15] > 100 µM | [16] 36.4 µM | [17] > 100 µM | [18] > 100 µM | [19] 44.3 µM | [20] > 100 µM

O=[N+]([O-])c1cc2ccc(N(CCO)CCO)nc2nc1N(CCO)CCO
inactive: [1] > 100 µM | [2] > 100 µM | [3] 46.2 µM | [4] > 100 µM | [5] > 100 µM | [6] > 100 µM | [7] > 100 µM | [8] > 100 µM | [9] > 100 µM | [10] > 100 µM | [11] > 100 µM | [12] > 100 µM | [13] > 100 µM | [14] > 100 µM | [15] > 100 µM | [16] > 100 µM | [17] > 100 µM | [18] > 100 µM | [19] > 100 µM | [20] > 100 µM

O=C(N/N=C/C=C/c1ccccc1)c1ccccc1Nc1ccccc1C(=O)N/N=C/C=C/c1ccccc1
inactive: [1] > 100 µM | [2] 27.5 µM | [3] 12.8 µM | [4] > 100 µM | [5] > 100 µM | [6] 20.8 µM | [7] 12.5 µM | [8] 67.9 µM | [9] 67 µM | [10] > 100 µM | [11] > 100 µM | [12] > 100 µM | [13] > 100 µM | [14] 93.5 µM | [15] > 100 µM | [16] > 100 µM | [17] 26.5 µM | [18] > 100 µM | [19] > 100 µM | [20] > 100 µM

CCOC(=O)CN1CC(C2=C(O)CN(CC(=O)OCC)C2=O)=CC1=O
inactive: [1] > 100 µM | [2] > 100 µM | [3] > 100 µM | [4] > 100 µM | [5] > 100 µM | [6] > 100 µM | [7] > 100 µM | [8] > 100 µM | [9] > 100 µM | [10] > 100 µM | [11] > 100 µM | [12] > 100 µM | [13] > 100 µM | [14] > 100 µM | [15] > 100 µM | [16] > 100 µM | [17] > 100 µM | [18] > 100 µM | [19] > 100 µM | [20] > 100 µM
